Experimental findings from article PMC3985417 (Journal of Medicinal Chemistry, 2014) are described below.

A short description of this series: in vitro. The settings on record: human, HEK293 cell homogenate.

`CN(C)CCCN1c2ccccc2CCc2ccccc21` [Imipramine]: the free fraction (fraction unbound) (commonly the share of the substance not bound to proteins or other matrix) at 4 h was found to be 0.59 ± 0.013.
